The test system of this assay is salmons. As to the kind of experiment: Fish feeding experiment, fillet colour by SalmoFan color measurement scale. The settings on record: salmon fillets, supplement in basic fish feed (50 mg astaxanthin/kg or 15% (w/w) fermented composition), fed for 8 weeks. The class given is in vivo. Here is the method:
The colour intensity of a salmonoid fillets according to the present invention may be determined by the SalmoFan™ color measurement scale. The SalmoFan™ color measurement scale has been developed by DSM and may be determined physically, using visual inspection applying a colour scale, or by digitally determination, using a colour sensor to determine the colour intensity. Fish feeding experiment using the following feed are performed: • (1) A basic fish feed comprising 50 mg chemically produced astaxanthin/kg basic fish feed; • (2) A basic fish feed comprising 15% (w/w) of a fermented composition comprising 99% fermented rapeseed meal and 1% fermented seaweed; and • (3) A basic fish feed comprising 15% (w/w) of a fermented composition as provided in Example 1, comprising 93% fermented soymeal, 6% fermented rapeseed meal and 1% fermented seaweed. 3 ponds with each 10 salmons of about 3 kg per salmon was fed with the above-mentioned basic fish feed, including supplement (1), (2) or (3), in the stated concentrations, for a period of 8 weeks. After the […] weeks the salmons were harvested, gutted and filleted and the colour of the fillets was determined by the SalmoFan™ color measurement scale.

Structures are written as SMILES.

Consider `CC1=C(/C=C/C(C)=C/C=C/C(C)=C/C=C/C=C(C)/C=C/C=C(C)/C=C/C2=C(C)C(=O)[C@@H](O)CC2(C)C)C(C)(C)C[C@H](O)C1=O` [supplement 1, astaxanthin], for which the Colour intensity is given as 23-23.

For the origin of these results see US20240306682A1, “Process for providing a combination of fermented seaweed and/or algae and plant material selected from the family Fabaceae” (FERMENTATIONEXPERTS A/S, priority 2020, published 2024).
